Patent US6949557B2, “Hydroanthracene based compounds as anticancer agents” (Dabur Research Foundation, priority 2003, dated 2005)
Converted amounts (≈) assume the structure as drawn.

What was measured:
MOLT4 = experiment: three day MTT cytotoxicity assay, MOLT4; assay type: cell-based, human; settings: 72 hours incubation, MOLT4 leukemia cells
Method: (§1) A number of the anthracene based compounds were tested for cytotoxicity against 12 human tumor cell lines. Briefly, a three day MTT cytotoxicity assay was performed, which is based on the principle of uptake of MTT (3-(4,5-dimethylthiazol-2-yl)-2,5-diphenyl tetrazolium bromide), a tetrazolium salt, by the metabolically active cells where it is metabolized by active mitochondria into a blue colored formazan product that is read spectrophotometrically. MTT was dissolved in phosphate buffered saline with a pH of 7.4 to obtain an MTT concentration of 5 mg/ml; the resulting mixture was filtered through a 0.22 micron filter to sterilize and remove a small amount of insoluble residue. For each type of tumor cell, 10,000 to 15,000 cells were seeded in a 96-well culture plate and incubated with the individual anthracene based compounds in a CO2 incubator for a total of 72 hours. Control cells not treated with the anthracene based compounds were similarly incubated. The assay was terminated by adding 100 ug (20 ul) of MTT to each well, then incubating for additional one hour, and finally adding 50 ul of 10% SDS-0.01N HCl to each well to lyse the cells and dissolve formazan. After incubating for one hour, the plate was read spectrophotometrically at 540 nm and the percentage of cytotoxicity calculated using the following formula:
(§2) Cytotoxicity percentage=100×[1−(X/R1)],
(§3) where X=(absorbance of treated sample at 540 nm)−(absorbance of blank at 540 nm)
(§4) R1=absorbance of control sample at 540 nm.
(§5) The IC50 Values of the cytotoxicity defined as the concentration at which 50% of the cells are killed in vitro was calculated for each cell line treated with each of the anthracene based compounds.

HT29 = experiment: three day MTT cytotoxicity assay, HT29; assay type: cell-based, human; settings: 72 hours incubation, HT29 colon cells
Method: as §1, §2, §3, §4, §5

DU145 = experiment: three day MTT cytotoxicity assay, DU145; assay type: cell-based, human; settings: 72 hours incubation, DU145 prostate cells
Method: as §1, §2, §3, §4, §5

KB = experiment: three day MTT cytotoxicity assay, KB; assay type: cell-based, human; settings: 72 hours incubation, KB oral cells
Method: as §1, §2, §3, §4, §5

L132 = experiment: three day MTT cytotoxicity assay, L132; assay type: cell-based, human; settings: 72 hours incubation, L132 lung cells
Method: as §1, §2, §3, §4, §5

MiaPaca2 = experiment: three day MTT cytotoxicity assay, MiaPaca2; assay type: cell-based, human; settings: 72 hours incubation, MiaPaca2 pancreatic cells
Method: as §1, §2, §3, §4, §5

Hep2 = experiment: three day MTT cytotoxicity assay, Hep2; assay type: cell-based, human; settings: 72 hours incubation, Hep2 larynx cells
Method: as §1, §2, §3, §4, §5

PA1 = experiment: three day MTT cytotoxicity assay, PA1; assay type: cell-based, human; settings: 72 hours incubation, PA1 ovarian cells
Method: as §1, §2, §3, §4, §5

ECV304 = experiment: three day MTT cytotoxicity assay, ECV304; assay type: cell-based, human; settings: 72 hours incubation, ECV304 endothelial cells
Method: as §1, §2, §3, §4, §5

MCF7 = experiment: three day MTT cytotoxicity assay, MCF7; assay type: cell-based, human; settings: 72 hours incubation, MCF7 breast cells
Method: as §1, §2, §3, §4, §5

U87MG = experiment: three day MTT cytotoxicity assay, U87MG; assay type: cell-based, human; settings: 72 hours incubation, U87MG glioblastoma cells
Method: as §1, §2, §3, §4, §5

PTC = experiment: three day MTT cytotoxicity assay, PTC; assay type: cell-based, human; settings: 72 hours incubation, PTC colon cells
Method: as §1, §2, §3, §4, §5

Row | melting point | Compound | ED50 MOLT4 Leukemia (MOLT4) | ED50 HT29 Colon (HT29) | ED50 DU145 Prostate (DU145) | ED50 KB Oral (KB) | ED50 L132 Lung (L132) | ED50 MiaPaca2 Pancreatic (MiaPaca2) | ED50 Hep2 Larynx (Hep2) | ED50 PA1 Ovarian (PA1) | ED50 ECV304 Endothelial (ECV304) | ED50 MCF7 Breast (MCF7) | ED50 U87MG Glioblastoma (U87MG) | ED50 PTC Colon (PTC)
1 | 90 to 92 °C | CC1=CCC2C(C)(C)C3=C(CC2(C)C1OC(=O)C1OC(C)(C)N(C(=O)OC(C)(C)C)C1c1ccccc1)C(=O)C=CC3=O (stereo not shown) [Compound 23, 2,2-Dimethyl-4-phenyl-oxazolidine-3,5-dicarboxylic acid 3-tert-butyl ester 5-(2,9a,10,10-tetramethyl-5,8-dioxo-1,4,4a,5,8,9,9a,10-octahydro-anthracen-1-yl) ester] |  |  |  |  |  |  |  |  |  |  |  | 
2 |  | CC1=CCC2C(CC3=C(C(=O)C=CC3=O)C2(C)C)C1OC(=O)C(O)C(N)c1ccccc1 (stereo not shown) [Compound 26, 3-Amino-2-hydroxy-3-phenyl-propionic acid 2,10,10-trimethyl-5,8-dioxo-1,4,4a,5,8,9,9a,10-octahydro-anthracen-1-yl ester] | 5.0 µg/mL (≈ 11.5 µM) | 6.5 µg/mL (≈ 14.9 µM) | 26 µg/mL (≈ 59.7 µM) | 31 µg/mL (≈ 71.2 µM) | 10 µg/mL (≈ 23 µM) | 35 µg/mL (≈ 80.4 µM) | 20 µg/mL (≈ 45.9 µM) | 19 µg/mL (≈ 43.6 µM) | 29 µg/mL (≈ 66.6 µM) | 32 µg/mL (≈ 73.5 µM) | 24 µg/mL (≈ 55.1 µM) | 5.0 µg/mL (≈ 11.5 µM)
3 |  | COc1ccc(OC)c2c1C[C@]1(C)C(OC(=O)[C@H](O)[C@@H](N)c3ccccc3)C(C)=CC[C@H]1C2(C)C (stereo partly shown) [Compound 11, 3-Amino-2-hydroxy-3-phenyl-propionic acid 5,8-dimethoxy-2,9a,10,10-tetramethyl-1,4,4a,9,9a,10-hexahydro-anthrcen-1-yl ester] | <1 µg/mL | 27 µg/mL (≈ 56.3 µM) | 10 µg/mL (≈ 20.8 µM) | 18 µg/mL (≈ 37.5 µM) | 21 µg/mL (≈ 43.8 µM) | 7 µg/mL (≈ 14.6 µM) | 16 µg/mL (≈ 33.4 µM) | 4 µg/mL (≈ 8.34 µM) | 2 µg/mL (≈ 4.17 µM) | 8 µg/mL (≈ 16.7 µM) | 10 µg/mL (≈ 20.8 µM) | 
4 |  | CC1=CCC2C(C)(C)C3=C(CC2(C)C1OC(=O)C(O)C(N)c1ccccc1)C(=O)C=CC3=O (stereo not shown) [Compound 24, 3-Amino-2-hydroxy-3-phenyl-propionic acid 2,9a,10,10-tetramethyl-5,8-dioxo-1,4,4a,5,8,9,9a,10-octahydro-anthracen-1-yl ester] | 7 µg/mL (≈ 15.6 µM) | 6 µg/mL (≈ 13.3 µM) | 5 µg/mL (≈ 11.1 µM) | 6.6 µg/mL (≈ 14.7 µM) | >100 µg/mL | >100 µg/mL | 14 µg/mL (≈ 31.1 µM) | 8 µg/mL (≈ 17.8 µM) | 3 µg/mL (≈ 6.67 µM) | >100 µg/mL | 5 µg/mL (≈ 11.1 µM) | 
5 | 137 to 140 °C | CC1=CCC2C(C)(C)C3=C(CC2(C)C1OC(=O)c1cc(Cl)nc(Cl)n1)C(=O)C=CC3=O (stereo not shown) [Compound 27, 2,6-Dichloro-pyrimidine-4-carboxylicacid-2,9a,10,10-tetramethyl-5,8-dioxo-1,4,4a,5,8,9,9a,10-octahydro-anthracen-1-yl ester] |  |  |  |  |  |  |  |  |  |  |  | 
6 |  | CC1=CCC2C(C)(C)C3=C(CC2(C)C1=O)C(=O)C=CC3=O (stereo not shown) [Compound 19, 6,9,9,10a-Tetramethyl-8a,9,10,10a-tetrahydro-8H-anthracene-1,4,5-trione] | 4 µg/mL (≈ 14.1 µM) | 33 µg/mL (≈ 116 µM) | 15 µg/mL (≈ 52.8 µM) | 62 µg/mL (≈ 218 µM) | 6 µg/mL (≈ 21.1 µM) | 80 µg/mL (≈ 281 µM) | 26 µg/mL (≈ 91.4 µM) | 15 µg/mL (≈ 52.8 µM) | 6 µg/mL (≈ 21.1 µM) | 18 µg/mL (≈ 63.3 µM) | 16 µg/mL (≈ 56.3 µM) | 40 µg/mL (≈ 141 µM)
7 | 125 to 140 °C | CC1=CCC2C(CC3=C(C(=O)C=CC3=O)C2(C)C)C1=O (stereo not shown) [Compound 20, 6,9,9-Trimethyl-8a,9, 10,10a-tetrahydro-8H-anthracene-1,4,5-trione] |  |  |  |  |  |  |  |  |  |  |  | 
8 |  | COc1ccc(OC)c2c1CC1C(OC(=O)C(O)C(N)c3ccccc3)C(C)=CCC1C2(C)C (stereo not shown) [Compound 7, 3-Amino-2-hydroxy-3-phenyl-propionic acid 5,8-dimethoxy-2,10,10-trimethyl-1,4,4a,9,9a,10-hexahydro-anthracen-1-yl ester] | 5.0 µg/mL (≈ 10.7 µM) | 8.0 µg/mL (≈ 17.2 µM) | 33 µg/mL (≈ 70.9 µM) | 29 µg/mL (≈ 62.3 µM) | 24 µg/mL (≈ 51.5 µM) | 35 µg/mL (≈ 75.2 µM) | 5.0 µg/mL (≈ 10.7 µM) | 5.0 µg/mL (≈ 10.7 µM) | 6.0 µg/mL (≈ 12.9 µM) | 35 µg/mL (≈ 75.2 µM) | 24 µg/mL (≈ 51.5 µM) | 5.0 µg/mL (≈ 10.7 µM)
9 |  | CC1=CCC2C(CC3=C(C(=O)C=CC3=O)C2(C)C)C1OC(=O)C1OC(C)(C)N(C(=O)OC(C)(C)C)C1c1ccccc1 (stereo not shown) [Compound 25, 2,2-Dimethyl-4-phenyl-oxazolidine-3,5-dicarboxylic acid 3-tert-butyl ester 5-(2,10,10-trimethyl-5,8-dioxo-1,4,4a,5,8,9,9a,10-octahydro-anthracen-1-yl) ester] | <1 µg/mL | 35 µg/mL (≈ 60.8 µM) | 32 µg/mL (≈ 55.6 µM) | 35 µg/mL (≈ 60.8 µM) | 4 µg/mL (≈ 6.95 µM) | 35 µg/mL (≈ 60.8 µM) | 11 µg/mL (≈ 19.1 µM) | 8 µg/mL (≈ 13.9 µM) | 5 µg/mL (≈ 8.69 µM) | 16 µg/mL (≈ 27.8 µM) | 24 µg/mL (≈ 41.7 µM) | 8 µg/mL (≈ 13.9 µM)
10 |  | COc1ccc(OC)c2c1Cc1c(ccc(C)c1OC(=O)[C@H](O)[C@@H](N)c1ccccc1)C2(C)C [Compound 29, 3-Amino-2-hydroxy-3-phenyl-propionic acid 5,8-dimethoxy-2,10,10,-trimethyl-9,10-dihydro-anthracen-1-yl ester] | 5.0 µg/mL (≈ 10.8 µM) | 6.5 µg/mL (≈ 14.1 µM) | 34 µg/mL (≈ 73.7 µM) | 30 µg/mL (≈ 65 µM) | 5.0 µg/mL (≈ 10.8 µM) | 35 µg/mL (≈ 75.8 µM) | 5.0 µg/mL (≈ 10.8 µM) | 5.0 µg/mL (≈ 10.8 µM) | 9.0 µg/mL (≈ 19.5 µM) | 29 µg/mL (≈ 62.8 µM) | 8.0 µg/mL (≈ 17.3 µM) | 5.0 µg/mL (≈ 10.8 µM)
